{"source": "patent US20160220518A1", "about": "(iCeutica, Inc., priority 2009, published 2016)", "origin": "cited, not measured here", "details": "in vivo"}
{"compound": "COc1ccc2cc([C@H](C)C(=O)O)ccc2c1", "note": "[naproxen]", "values": [{"measurement": "excreted in the urine as 6-0-desmethyl naproxen", "result": "< 1", "unit": "%"}, {"measurement": "excreted in the urine as naproxen", "result": "< 1", "unit": "%"}, {"measurement": "fraction of any dose excreted in the urine", "result": "Approximately 95%"}, {"measurement": "fraction of the administered dose excreted in the feces", "result": "≤ 3", "unit": "%"}]}
